# Data published in patent US12239624B2, “Glyceryl tris (beta-hydroxybutyrate) and neuronal transient ischemic attacks” (NeuroEnergy Ventures, Inc., priority 2019, dated 2025).
# Details: in vivo
compound,measurement,setting,value
"CC(O)CC(=O)OCC(COC(=O)CC(C)O)OC(=O)CC(C)O (stereo not drawn) [GTβHB, Glyceryl Tris (Beta-HydroxyButyrate)]",time for beta-hydroxybutyrate and acetoacetate from GTβHB to return to pre-administration levels,,≤ 24 h
same,period within which GTβHB is cleared by the body,po,≤ 24 h
